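GI50 is the concentration that inhibits growth by half. TGI denotes the concentration required for complete inhibition of growth.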
Experiments:
Experiment in all cases: NCI anticancer screen, dose series, 384-well format
[1] = test system: SK-MEL-5 melanoma
[2] = test system: A498 renal
[3] = test system: BT-549 breast
[4] = test system: IGROV1 ovarian
[5] = test system: HCC-2998 colon
[6] = test system: UACC-62 melanoma
[7] = test system: MOLT-4 leukemia
[8] = test system: DU-145 prostate
[9] = test system: MDA-MB-435 melanoma
[10] = test system: RPMI-8226 leukemia
[11] = test system: MDA-MB-468 breast
[12] = test system: SNB-19 CNS
[13] = test system: SK-MEL-28 melanoma
[14] = test system: UACC-257 melanoma
[15] = test system: OVCAR-4 ovarian
[16] = test system: U251 glioblastoma
[17] = test system: HS 578T breast
[18] = test system: MALME-3M melanoma
[19] = test system: HL-60(TB) leukemia
[20] = test system: SF-295 CNS
[21] = test system: NCI-H322M lung
[22] = test system: KM12 colon
[23] = test system: HOP-62 NSCLC
[24] = test system: SW-620 colon
[25] = test system: CAKI-1 renal
[26] = test system: HOP-92 NSCLC
[27] = test system: COLO 205 colon
[28] = test system: A549 NSCLC
[29] = test system: HCT-15 colon
[30] = test system: 786-0 renal
[31] = test system: EKVX NSCLC
[32] = test system: SK-MEL-2 melanoma
[33] = test system: TK-10 renal
[34] = test system: SR leukemia
[35] = test system: SN12C renal
[36] = test system: OVCAR-3 ovarian
[37] = test system: OVCAR-8 ovarian
[38] = test system: NCI-H460 NSCLC
[39] = test system: SNB-75 CNS
[40] = test system: SK-OV-3 ovarian
[41] = test system: NCI-H522 lung
[42] = test system: T-47D breast
[43] = test system: MCF7 breast
[44] = test system: NCI/ADR-RES ovarian
[45] = test system: HT29 colon
[46] = test system: M14 melanoma
[47] = test system: NCI-H23 lung
[48] = test system: ACHN renal
[49] = test system: SF-539 CNS
[50] = test system: RXF 393 renal
[51] = test system: SF-268 CNS
[52] = test system: MDA-MB-231 breast
[53] = test system: PC-3 prostate
[54] = test system: NCI-H226 lung
[55] = test system: CCRF-CEM leukemia
[56] = test system: OVCAR-5 ovarian

N[C@H]1C[C@@H]1c1ccc(-c2cccc(O)c2)cc1
GI50 [1]: 14.1 µM
TGI [1]: 27.2 µM
GI50 [2]: 20.3 µM
TGI [2]: 60.3 µM
GI50 [3]: 19.5 µM
TGI [3]: 48.8 µM
GI50 [4]: 44.1 µM
TGI [4]: > 100 µM
GI50 [5]: 18.4 µM
TGI [5]: 38.7 µM
GI50 [6]: 18.7 µM
TGI [6]: 40.8 µM
GI50 [7]: 14.7 µM
TGI [7]: 28 µM
GI50 [8]: 48.7 µM
TGI [8]: > 100 µM
GI50 [9]: 20.9 µM
TGI [9]: 46.4 µM
GI50 [10]: 18.4 µM
TGI [10]: 34.9 µM
GI50 [11]: 4.18 µM
TGI [11]: 20.1 µM
GI50 [12]: 42.8 µM
TGI [12]: > 100 µM
GI50 [13]: 22.5 µM
TGI [13]: 43.9 µM
GI50 [14]: 19.2 µM
TGI [14]: 34.4 µM
GI50 [15]: 39.2 µM
TGI [15]: > 100 µM
GI50 [16]: 24.1 µM
TGI [16]: 55.5 µM
GI50 [17]: 16.9 µM
TGI [17]: 34.5 µM
GI50 [18]: 16.8 µM
TGI [18]: 31.1 µM
GI50 [19]: 14.3 µM
TGI [19]: 27.5 µM
GI50 [20]: 33.9 µM
TGI [20]: > 100 µM
GI50 [21]: 74.5 µM
TGI [21]: > 100 µM
GI50 [22]: 20.1 µM
TGI [22]: 37.8 µM
GI50 [23]: 17 µM
TGI [23]: 45 µM
GI50 [24]: 22.5 µM
TGI [24]: 43.5 µM
GI50 [25]: 24.6 µM
TGI [25]: 50.9 µM
GI50 [26]: 29.4 µM
TGI [26]: 72.9 µM
GI50 [27]: 43.9 µM
TGI [27]: > 100 µM
GI50 [28]: 44.9 µM
TGI [28]: > 100 µM
GI50 [29]: 26.7 µM
TGI [29]: 68 µM
GI50 [30]: 30.1 µM
TGI [30]: > 100 µM
GI50 [31]: 30.8 µM
TGI [31]: > 100 µM
GI50 [32]: 32.5 µM
TGI [32]: 48.8 µM
GI50 [33]: 31.5 µM
TGI [33]: 93.3 µM
GI50 [34]: 18.8 µM
TGI [34]: 33.1 µM
GI50 [35]: 44.7 µM
TGI [35]: > 100 µM
GI50 [36]: 40.6 µM
TGI [36]: > 100 µM
GI50 [37]: 31.8 µM
TGI [37]: 99.8 µM
GI50 [38]: 18.1 µM
TGI [38]: 34.6 µM
GI50 [39]: 18.9 µM
TGI [39]: 59.4 µM
GI50 [40]: 20 µM
TGI [40]: 48.8 µM
GI50 [41]: 17.9 µM
TGI [41]: 36.6 µM
GI50 [42]: 19.2 µM
TGI [42]: 38.4 µM
GI50 [43]: 36 µM
TGI [43]: > 100 µM
GI50 [44]: 38.8 µM
TGI [44]: > 100 µM
GI50 [45]: 24.6 µM
TGI [45]: 64.3 µM
GI50 [46]: 20.1 µM
TGI [46]: 36.5 µM
GI50 [47]: 23.3 µM
TGI [47]: 65.6 µM
GI50 [48]: 27 µM
TGI [48]: 61.7 µM
GI50 [49]: 24.6 µM
TGI [49]: 63.1 µM
GI50 [50]: 22 µM
TGI [50]: 46.3 µM
GI50 [51]: 36.6 µM
TGI [51]: > 100 µM
GI50 [52]: 21.1 µM
TGI [52]: 50.3 µM
GI50 [53]: 29.6 µM
TGI [53]: 95.1 µM
GI50 [54]: 30.3 µM
TGI [54]: 96.1 µM
GI50 [55]: 15 µM
TGI [55]: 28.4 µM
GI50 [56]: 30.4 µM
TGI [56]: > 100 µM

From PubChem BioAssay (NCI)
